# Read-outs that look alike come from different tables or passages of the source.
# Tests used:
# [1] = Screen cytotoxicity by nuclei count in ZIKV-infected U87 cells; type: cell-based; settings: human, ZIKV-infected U87 cells
# U87 cells [2] = assay: Cell viability by nuclei count in ZIKV-infected U87 cells; type: cell-based, Human
# ZIKV [3] = assay: Antiviral dose-response in ZIKV-infected U87 cells (infected cells, viral titer); type: cell-based, Zika virus (strain H/PF/2013); settings: Zika virus, U-87 MG; for IC50: ZIKV; for EC50: U87, ZIKV MOI 1, 48 h
# Vero cells = assay: Cell viability by nuclei count in ZIKV-infected Vero cells; type: cell-based, African Green Monkey
# ZIKV [4] = assay: Antiviral dose-response in ZIKV-infected Vero cells; type: cell-based, Zika virus (strain H/PF/2013); settings: Zika virus
# human brain organoids = assay: Viability and structure of ZIKV-infected human cerebral organoids; settings: ZIKV 2 × 10^4 particles/organoid, 5 μM, 7 dpi and 10 dpi
# HAZV = assay: microbe, parasite or virus in culture; type: cell-based, Hazara virus (isolate JC280); settings: for inhibition at 10 µM: Hazara virus, SW13, 24 h
# ZIKV [5] = assay: Viral budding assay in ZIKV-infected U87 cells; type: cell-based, Zika virus (strain H/PF/2013)
# [6] = Cell viability assay (Resazurin), uninfected U87 cells; type: cell-based, Human; settings: human, read-out: Viability CC50 [µM] (95%-CI)
# U87 cells [7] = assay: as above; type: cell-based, Human; settings: Homo sapiens, U-87 MG; U87, Resazurin, all measured time points (24, 48 or 72 h); read-out: IC50 (toxicity profile, cellular viability)
# ZIKV [8] = assay: ZIKV-induced cytopathic effect in U87 cells (immunofluorescence imaging); type: cell-based, Zika virus (strain H/PF/2013); settings: U87, ZIKV MOI 1, 10 μM TH6744, 24, 48 or 72 h
# ZIKV [9] = assay: End-point dilution assay by CPE, ZIKV-infected Vero cells; type: cell-based, Zika virus (strain H/PF/2013); settings: ZIKV MOI 0.1, increasing doses, 24 h
# ZIKV [10] = assay: Time course of ZIKV replication in U87 cells (vRNA, infected cells, titer)
# ZIKV [11] = assay: ZIKV infection (NS1 intensity) and viral titer in human cerebral organoids; type: cell-based, Zika virus (strain H/PF/2013); settings: ZIKV 2 × 10^4 particles/organoid, 5 μM
# ZIKV [12] = assay: Time-of-addition assay in ZIKV-infected U87 cells; type: cell-based, Zika virus (strain H/PF/2013)
# ZIKV [13] = assay: Image-based phenotypic antiviral screen in ZIKV-infected U87 cells; type: cell-based, Zika virus (strain H/PF/2013); settings: for inhibition at 10 µM: Zika virus, U-87 MG
# in vitro = type: cell-based; settings: African green monkey
# [14] = U87, ZIKV MOI 10, 22 h then 5 μM for 2 h
# [15] = U87, ZIKV MOI 10, 22 h then 10 μM for 2 h
structure (smiles),measurement,setting,value
CCOC(=O)c1cnn(-c2cccc3c2[nH]c(=O)n3C2CCN(C(=O)Nc3ccc(I)cc3)CC2)c1 [TH6744],"viability at 48 h, 10 µM","[1]; ZIKV MOI 10, compound 10 µM, 48 h, nuclei count relative to DMSO",105%
same,viability at 10 µM,[1]; screen,105%
same,EC50,"U87 cells [2]; Homo sapiens, U-87 MG, U87, ZIKV MOI 1, 48 h, nuclei count, read-out: EC50 [μM] Living cells",> 50 µM
same,EC50,"U87 cells [2]; Homo sapiens, U-87 MG, ZIKV, U87, MOI 10, 24 h, read-out: Viability (nuclei count) EC50",> 50 µM
same,EC50,"U87 cells [2]; Homo sapiens, U-87 MG, ZIKV, U87, MOI 10, 48 h, read-out: Viability (nuclei count) EC50",> 50 µM
same,viability (nuclei count),"U87 cells [2]; U87, ZIKV MOI 1, 24 hpi",without affecting the viability
same,EC50,"U87 cells [2]; ZIKV, U87, MOI 1, 24 h, read-out: Viability (nuclei count) EC50",> 50 µM
same,EC50,"U87 cells [2]; ZIKV, U87, MOI 1, 48 h, read-out: Viability (nuclei count) EC50",> 50 µM
same,IC50,"ZIKV [3]; 24 h, U87, MOI 1, 24 h, read-out: Antiviral on primary infection IC50",> 50 µM
same,IC50,"ZIKV [3]; 24 h, U87, MOI 1, 24 h, read-out: Antiviral on titer (µM) IC50",> 50 µM
same,IC50,"ZIKV [3]; 24 h, U87, MOI 10, 24 h, read-out: Antiviral on primary infection IC50",> 50 µM
same,IC50,"ZIKV [3]; 24 h, U87, MOI 10, 24 h, read-out: Antiviral on titer (µM) IC50",10.3 µM
same,IC50,"ZIKV [3]; 48 h, U87, MOI 1, 48 h, read-out: Antiviral on primary infection IC50",7.5 µM
same,IC50,"ZIKV [3]; 48 h, U87, MOI 1, 48 h, read-out: Antiviral on titer (µM) IC50",4.4 µM
same,IC50,"ZIKV [3]; 48 h, U87, MOI 10, 48 h, read-out: Antiviral on primary infection IC50",12.2 µM
same,IC50,"ZIKV [3]; 48 h, U87, MOI 10, 48 h, read-out: Antiviral on titer (µM) IC50",9.2 µM
same,EC50,"ZIKV [3]; ZIKV NS1 staining, read-out: EC50 [μM] Infected cells",7.5 µM
same,EC50,"ZIKV [3]; end-point dilution assay, read-out: EC50 [μM] Viral titer",4.4 µM
same,EC50,"Vero cells; Chlorocebus sabaeus, MOI 10, 24 h",> 50 µM
same,EC50,"Vero cells; Chlorocebus sabaeus, MOI 10, 48 h",> 50 µM
same,EC50,"Vero cells; MOI 1, 24 h",> 50 µM
same,EC50,"Vero cells; MOI 1, 48 h",> 50 µM
same,IC50,"ZIKV [4]; 24 h, MOI 1, 24 h, read-out: Antiviral on primary infection IC50",48.4 µM
same,IC50,"ZIKV [4]; 24 h, MOI 1, 24 h, read-out: Antiviral on titer (µM) IC50",3.9 µM
same,IC50,"ZIKV [4]; 24 h, MOI 10, 24 h, read-out: Antiviral on primary infection IC50",> 50 µM
same,IC50,"ZIKV [4]; 24 h, MOI 10, 24 h, read-out: Antiviral on titer (µM) IC50",5.5 µM
same,IC50,"ZIKV [4]; 48 h, MOI 1, 48 h, read-out: Antiviral on primary infection IC50",2.9 µM
same,IC50,"ZIKV [4]; 48 h, MOI 1, 48 h, read-out: Antiviral on titer (µM) IC50",3.6 µM
same,IC50,"ZIKV [4]; 48 h, MOI 10, 48 h, read-out: Antiviral on primary infection IC50",5.8 µM
same,IC50,"ZIKV [4]; 48 h, MOI 10, 48 h, read-out: Antiviral on titer (µM) IC50",7.2 µM
same,phenotypic rescue (retained structure of organoids),human brain organoids,phenotypic rescue
same,inhibition at 10 µM,HAZV; read-out: Inhibition of HAZV titer (%),90%
same,inhibition at 10 µM,HAZV; read-out: Inhibition of primary HAZV infection (%),85%
same,"Infected Cells (SW13, HAZV)","HAZV; screen, SW13 cells, HAZV",15%
same,Viral Titer (HAZV),"HAZV; screen, SW13 cells, HAZV",10%
same,infectivity of pre-budding and post-budding particles,"ZIKV [5]; U87, ZIKV MOI 10, 2 h TH6744 treatment (5 or 10 μM), dose-dependent",reduced to a similar extent
same,Fraction of infectious ZIKV particles: Extracellular,ZIKV [5]; [14],94.30%
same,Fraction of infectious ZIKV particles: Intracellular,ZIKV [5]; [14],5.70%
same,Fraction of infectious ZIKV particles: Extracellular,ZIKV [5]; [15],93.44%
same,Fraction of infectious ZIKV particles: Intracellular,ZIKV [5]; [15],6.56%
same,CC50 at 24 h,"[6]; uninfected U87, 24 h",> 50 µM
same,CC50 at 48 h,"[6]; uninfected U87, 48 h",> 50 µM
same,CC50 at 72 h,"[6]; uninfected U87, 72 h",> 50 µM
same,IC50,U87 cells [7],> 50 µM
same,effect on ZIKV-induced CPE in U87 cells,ZIKV [8],reversed ZIKV-induced CPE
same,viral titer measured by CPEs,ZIKV [9],reduced viral titer in a dose-dependent manner
same,ZIKV-infected cells,"ZIKV [10]; U87, ZIKV MOI 1, 24 hpi",no reduction
same,reduction of extracellular vRNA levels,"ZIKV [10]; U87, ZIKV MOI 1, 24 hpi",50%
same,reduction of viral titers,"ZIKV [10]; U87, ZIKV MOI 1, 24 hpi",75%
same,intracellular ZIKV vRNA,"ZIKV [10]; U87, ZIKV MOI 1, 24 hpi, qPCR",no reduction
same,intracellular ZIKV vRNA levels,"ZIKV [10]; U87, ZIKV MOI 1, 48 hpi",remained unchanged
same,reduction of number of ZIKV-infected cells,"ZIKV [10]; U87, ZIKV MOI 1, 48 hpi",65%
same,reduction of titer,"ZIKV [10]; U87, ZIKV MOI 1, 48 hpi",83%
same,decrease of number of ZIKV-infected cells,"ZIKV [10]; U87, ZIKV MOI 1, 72 h exposure",40%
same,decrease of viral titer,"ZIKV [10]; U87, ZIKV MOI 1, 72 h exposure",63%
same,ZIKV NS1 intensity in sectioned organoids (primary virus infection),ZIKV [11]; 7 dpi,marked reduction
same,reduction of ZIKV progeny particles produced by the organoids,"ZIKV [11]; all timepoints, relative to DMSO",70–80%
same,"reduction on viral titer, entry","ZIKV [12]; U87, ZIKV MOI 10, 10 μM TH6744, 1 h pre-treatment and during inoculation, titer at 24 hpi",50%
same,"viral titer, post-inoculation","ZIKV [12]; U87, ZIKV MOI 10, 10 μM TH6744 directly after inoculation for 24 h",pronounced reduction of viral titer
same,"titer reduction, virus budding","ZIKV [12]; U87, ZIKV MOI 10, 10 μM TH6744 from 22 h after inoculation for 2 h",50%
same,Viral Titer (ZIKV) (%),"ZIKV [13]; U87, ZIKV MOI 10, compound 10 µM, 48 h, relative to DMSO",5%
same,"Infected Cells (U87, ZIKV) (%)","ZIKV [13]; ZIKV MOI 10, compound 10 µM, 48 h, relative to DMSO",88%
same,inhibition at 10 µM,"ZIKV [13]; U87, ZIKV MOI 10, compound 10 µM, 48 h, relative to DMSO, read-out: Inhibition of ZIKV titer (%)",95%
same,inhibition at 10 µM,"ZIKV [13]; U87, ZIKV MOI 10, compound 10 µM, 48 h, relative to DMSO, read-out: Inhibition of primary ZIKV infection (%)",12%
same,"Infected Cells (U87, ZIKV)","ZIKV [13]; screen, U87 cells, ZIKV",88%
same,Viral Titer (ZIKV),"ZIKV [13]; screen, U87 cells, ZIKV",5%
same,CC50 at 24 h,in vitro,> 50 µM
same,CC50 at 48 h,in vitro,> 50 µM
same,CC50 at 72 h,in vitro,> 50 µM
